Tests used:
[1] = biological target: T1, Mitogen-activated protein kinase 14 (Homo sapiens, UniProt Q16539); test: Inhibition of p38alpha kinase using KRELVEPLTPSGEAPNQALLR as substrate for 20 mins by lactate dehydrogenase-coupled spectrophotometric assay
[2] = biological target: T1, Mitogen-activated protein kinase 14; test: Inhibition of p38alpha in human PBMC assessed as inhibition of LPS-induced IL1beta production after 16 to 18 hrs by ELISA
[3] = biological target: T1, Mitogen-activated protein kinase 14; test: Inhibition of p38alpha in human PBMC assessed as inhibition of LPS-induced TNFalpha production after 16 to 18 hrs by ELISA

T1 sequence (Q16539 whole entry): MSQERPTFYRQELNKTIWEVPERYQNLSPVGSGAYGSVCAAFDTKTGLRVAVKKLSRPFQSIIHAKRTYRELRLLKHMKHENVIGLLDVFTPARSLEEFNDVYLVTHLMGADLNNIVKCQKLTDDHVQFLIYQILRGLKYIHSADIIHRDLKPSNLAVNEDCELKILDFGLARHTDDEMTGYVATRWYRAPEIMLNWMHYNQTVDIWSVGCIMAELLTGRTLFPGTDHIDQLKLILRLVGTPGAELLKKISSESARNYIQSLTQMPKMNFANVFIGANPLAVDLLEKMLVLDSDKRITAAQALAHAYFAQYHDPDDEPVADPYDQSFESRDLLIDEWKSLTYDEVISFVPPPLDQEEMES

Row | SMILES | IC50 [1] [nM] | IC50 [2] [nM] | IC50 [3] [nM]
1 | O=c1ncn2nc(Sc3ccccc3)ccc2c1-c1ccccc1Cl | 4100 | – | –
2 | Cc1cc(Cl)ccc1Sc1ccc2c(-c3c(Cl)cccc3Cl)c(=O)ncn2n1 | 180 | 180 | 160
3 | Cc1cccc(Sc2ccc3c(-c4c(Cl)cccc4Cl)c(=O)ncn3n2)c1 | 1400 | – | –
4 | COc1ccccc1-c1c(=O)ncn2nc(Sc3ccccc3)ccc12 | 12000 | 2800 | –
5 | Cc1ccccc1Sc1ccc2c(-c3c(Cl)cccc3Cl)c(=O)ncn2n1 | 200 | 330 | 3700
6 | Cc1ccc(Sc2ccc3c(-c4c(Cl)cccc4Cl)c(=O)ncn3n2)cc1C | 1900 | 2400 | 3500
7 | O=c1ncn2nc(Sc3ccccc3)ccc2c1-c1ccc(Cl)cc1Cl | 5000 | 20000 | 20000
8 | Cc1ccc(Sc2ccc3c(-c4c(Cl)cccc4Cl)c(=O)ncn3n2)cc1 | 1400 | 370 | –
9 | O=c1ncn2nc(Sc3ccccc3O)ccc2c1-c1c(Cl)cccc1Cl | 360 | 140 | 490
10 | O=c1ncn2nc(Sc3ccccc3)ccc2c1-c1c(F)cccc1F | 3500 | 3700 | 15300
11 | O=c1ncn2nc(Sc3ccccc3)ccc2c1-c1ccc(F)cc1 | > 20000 | – | > 20000
12 | O=c1ncn2nc(Sc3cccc(F)c3)ccc2c1-c1c(Cl)cccc1Cl | – | 440 | 720
13 | O=c1ncn2nc(Sc3ccccc3)ccc2c1-c1c(F)cccc1C(F)(F)F | 1700 | 1000 | 3100
14 | O=c1ncn2nc(Sc3ccc(F)cc3Cl)ccc2c1-c1c(Cl)cccc1Cl | 36 | 53 | 275
15 | O=c1ncn2nc(Sc3cccc(Cl)c3)ccc2c1-c1c(Cl)cccc1Cl | 280 | – | –
16 | O=c1ncn2nc(Sc3ccccc3)ccc2c1-c1ccccc1C(F)(F)F | 11000 | 2100 | > 20000
17 | Nc1cc(F)ccc1Sc1ccc2c(-c3c(Cl)cccc3Cl)c(=O)ncn2n1 | 220 | 280 | 1200
18 | O=c1ncn2nc(Sc3ccc(F)c(Cl)c3)ccc2c1-c1c(Cl)cccc1Cl | 500 | 180 | 480
19 | O=c1ncn2nc(Sc3ccc(F)cc3)ccc2c1-c1c(Cl)cccc1Cl | 123 | – | 293
20 | Cc1ccccc1-c1c(=O)ncn2nc(Sc3ccccc3)ccc12 | 4400 | – | 9700
21 | O=c1ncn2nc(Sc3ccccc3)ccc2c1-c1ccccc1 | > 20000 | – | –
22 | O=c1ncn2nc(Sc3ccc(Cl)c(Cl)c3)ccc2c1-c1c(Cl)cccc1Cl | 800 | – | 1200
23 | CCc1ccccc1Sc1ccc2c(-c3c(Cl)cccc3Cl)c(=O)ncn2n1 | 750 | 980 | 2800
24 | Cc1ccc(Sc2ccc3c(-c4c(Cl)cccc4Cl)c(=O)ncn3n2)c(C)c1 | 260 | 690 | 320
25 | O=c1ncn2nc(Sc3ccccc3)ccc2c1-c1c(Cl)cccc1Cl | 250 | 400 | 460

From ChEMBL document CHEMBL2021894, “The Discovery of VX-745: A Novel and Selective p38α Kinase Inhibitor” (ACS Med Chem Lett, 2011)
